The source of these data is PubChem BioAssay (NCI).

Test systems include HT29 colon; COLO 205 colon; U251 CNS; OVCAR-4 ovarian; UO-31 renal; MCF7 breast; RPMI-8226 leukemia; HCT-15 colon; OVCAR-5 ovarian; RXF 393 renal.
What all share (assay): inhibition of tumour cell growth, NCI panel, 48 h

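Test compounds were applied to cells in 96-well plates for 48 hours at 5 doses. TGI denotes the concentration required for complete inhibition of growth.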

For the compound `NC(N)=NS(=O)(=O)c1ccc(NC(=O)c2c3ccccc3nc3ccccc23)cc1`, the TGI in the experiment on HT29 colon, in the experiment with COLO 205 colon, with U251 CNS, in the experiment on OVCAR-4 ovarian, in the experiment on UO-31 renal and with MCF7 breast was above 100 µM each time. The TGI in the experiment on RPMI-8226 leukemia, in the experiment on HCT-15 colon and with OVCAR-5 ovarian was above 100 µM each time.

As to `O=C(Cl)c1cc([N+](=O)[O-])cc([N+](=O)[O-])c1`, the TGI in the experiment with HT29 colon, in the experiment on COLO 205 colon, in the experiment on U251 CNS, with OVCAR-4 ovarian, in the experiment with UO-31 renal and in the experiment on RPMI-8226 leukemia was above 100 µM each time. Moreover, the TGI in the experiment on HCT-15 colon and in the experiment with OVCAR-5 ovarian was above 100 µM throughout.

Turning to `COc1cc(/C=C/C(=O)C(C)(C)C)cc(OC)c1OC`, the TGI in the experiment with HT29 colon, in the experiment on COLO 205 colon, in the experiment with U251 CNS, with OVCAR-4 ovarian, in the experiment on UO-31 renal and in the experiment with RPMI-8226 leukemia was above 100 µM each time. The TGI in the experiment on RXF 393 renal is 79.1 µM; in the experiment with HCT-15 colon it was above 100 µM; in the experiment with OVCAR-5 ovarian it was above 100 µM.

Regarding `Nc1nc(NC(=O)C2=NS(=O)(=O)c3cc(S(N)(=O)=O)c(Cl)cc3N2)n[nH]1`, the TGI in the experiment on HT29 colon, in the experiment on COLO 205 colon, with U251 CNS, in the experiment on OVCAR-4 ovarian, with UO-31 renal and with RPMI-8226 leukemia was above 100 µM throughout. Further, the TGI in the experiment on RXF 393 renal, in the experiment with HCT-15 colon and in the experiment with OVCAR-5 ovarian was above 100 µM throughout.

Consider `Cc1c2cccc-2c(N(C)C)cc2c1[nH]c1ccccc12`, for which the TGI in the experiment with HT29 colon is 18.2 µM; in the experiment on COLO 205 colon, 3.42 µM; in the experiment with U251 CNS it was 4.01 µM; in the experiment on UO-31 renal, 7.93 µM; with MCF7 breast, 24.1 µM; with RPMI-8226 leukemia it was 5.73 µM. Besides, the TGI with HCT-15 colon is 13.6 µM; with OVCAR-5 ovarian it was 9.35 µM.

As to `CC(=O)NC(Cc1ccccc1)C(=S)N1CCCC1` (stereo not given), the TGI with HT29 colon, with COLO 205 colon, in the experiment on U251 CNS, with OVCAR-4 ovarian, with UO-31 renal and with RPMI-8226 leukemia was above 100 µM in each case. Besides, the TGI with RXF 393 renal, in the experiment on HCT-15 colon and in the experiment with OVCAR-5 ovarian was above 100 µM in each case.

As to `COc1cc(C=Nc2ccc(Oc3ccc(Cl)cc3)c(Cl)c2)cc(OC)c1OC`, the TGI in the experiment on HT29 colon is 44 µM; with COLO 205 colon, 34 µM; in the experiment with U251 CNS it was 40.8 µM; with OVCAR-4 ovarian, 62.3 µM; in the experiment on UO-31 renal it was 23.2 µM; in the experiment with MCF7 breast, 95.5 µM. For the same compound, the TGI with RPMI-8226 leukemia was above 100 µM; with HCT-15 colon it was 39.2 µM; with OVCAR-5 ovarian, above 100 µM.

Consider `Cc1ccc(CCNC(=S)SCC(NC(=O)CCC(N)C(=O)O)C(=O)NCC(=O)O)cc1` (stereo not given), for which the TGI was determined as 7.01 µM with HT29 colon; 6.63 µM in the experiment on COLO 205 colon; 4.06 µM with U251 CNS; 7.41 µM with OVCAR-4 ovarian; 2.33 µM in the experiment with UO-31 renal; 1.43 µM in the experiment on RPMI-8226 leukemia. The figures for the TGI with RXF 393 renal, in the experiment with HCT-15 colon and with OVCAR-5 ovarian were 2.32 µM, 3.72 µM and 6.11 µM, respectively.

As to `CC1(C)CC(=O)C2=C(C1)OC1=C(CC(C)(C)CC1=O)C2c1ccccc1Cl` (stereo not given), the TGI is above 100 µM with HT29 colon; above 100 µM with COLO 205 colon; above 100 µM in the experiment on U251 CNS; above 100 µM with OVCAR-4 ovarian; 3.67 µM in the experiment with UO-31 renal; above 100 µM in the experiment on RPMI-8226 leukemia. The TGI with RXF 393 renal, in the experiment with HCT-15 colon and in the experiment with OVCAR-5 ovarian was above 100 µM in each case.

With `C[N+](C)(C)CC(=O)N/N=C(\C(=O)Nc1ccc(Cl)cc1)C1C(=O)N(c2ccccc2)N=C1N` (stereo not given), the TGI in the experiment with HT29 colon, with COLO 205 colon, in the experiment with U251 CNS, in the experiment on OVCAR-4 ovarian, in the experiment with UO-31 renal and with RPMI-8226 leukemia was above 100 µM in each case. The TGI in the experiment with RXF 393 renal, with HCT-15 colon and in the experiment with OVCAR-5 ovarian was above 100 µM in each case.

With `Cc1ccc(-n2cc(-c3ccc(Cl)cc3)c3c(NNC(=S)NCc4ccccc4)ncnc32)cc1`, the TGI in the experiment on HT29 colon was 50.7 µM; in the experiment with COLO 205 colon, 27.3 µM; in the experiment with U251 CNS it was 48.6 µM; in the experiment on OVCAR-4 ovarian, above 100 µM; in the experiment on UO-31 renal, 24.2 µM; in the experiment with RPMI-8226 leukemia, above 100 µM. Moreover, the TGI in the experiment with RXF 393 renal is 56.4 µM; in the experiment with HCT-15 colon it was 68.2 µM; with OVCAR-5 ovarian it was 48.6 µM.

As to `OB1OCc2ccccc21`, the TGI is above 100 µM in the experiment with HT29 colon; above 100 µM in the experiment on COLO 205 colon; above 100 µM in the experiment with U251 CNS; 92.8 µM in the experiment on OVCAR-4 ovarian; above 100 µM with UO-31 renal; 82.1 µM with MCF7 breast. For the same compound, the TGI in the experiment with RPMI-8226 leukemia is 45.9 µM; in the experiment with HCT-15 colon, above 100 µM.

Take `COc1ccc2[nH]c3c(C)c4ccnc(NCCCN(C)CCCNC(=O)NCCCN(C)CCCNc5nccc6c(C)c7[nH]c8ccc(OC)cc8c7c(C)c56)c4c(C)c3c2c1`: the TGI in the experiment with HT29 colon was 1.19 µM; with COLO 205 colon, 0.858 µM; in the experiment with OVCAR-4 ovarian, 7.83 µM; in the experiment with UO-31 renal, above 16.9 µM; in the experiment with RPMI-8226 leukemia it was above 14.5 µM; in the experiment on RXF 393 renal, 1.26 µM. For the same compound, the TGI with HCT-15 colon was above 17.6 µM; in the experiment with OVCAR-5 ovarian, 4.13 µM.

On to `CCN(CC)CC(C(=O)Nc1c(C)cccc1C)/C(C)=N/NC(N)=S` (stereo not given), for which the TGI in the experiment with HT29 colon, in the experiment on COLO 205 colon, in the experiment with U251 CNS, in the experiment on UO-31 renal, in the experiment with RPMI-8226 leukemia and in the experiment on RXF 393 renal was above 100 µM each time. The same compound showed a TGI with OVCAR-5 ovarian above 100 µM.

Turning to `COC(=O)C1(C(=O)OC)CC2=C(S(=O)(=O)c3ccccc3)C[C@@H](C#N)[C@H]2C1`, the TGI with HT29 colon, in the experiment on COLO 205 colon, in the experiment with U251 CNS, with OVCAR-4 ovarian, in the experiment with UO-31 renal and in the experiment on MCF7 breast was above 100 µM throughout. The TGI with HCT-15 colon and in the experiment with OVCAR-5 ovarian was above 100 µM throughout.

As to `O=C(N/N=C/c1cc(-c2ccccc2Cl)c(-c2ccccc2Cl)o1)c1ccncc1`, the TGI is above 100 µM in the experiment with HT29 colon; above 100 µM in the experiment on COLO 205 colon; above 100 µM in the experiment with OVCAR-4 ovarian; 65.9 µM with RPMI-8226 leukemia; above 100 µM with RXF 393 renal; above 100 µM with OVCAR-5 ovarian.

For `CC1=C2CC3=C(C)C(=O)O[C@H]3C[C@@H](C)[C@@H]2CC1`, the TGI in the experiment with HT29 colon, in the experiment with COLO 205 colon, in the experiment with U251 CNS, with OVCAR-4 ovarian, with UO-31 renal and in the experiment on RPMI-8226 leukemia was above 100 µM in each case. Further, the TGI in the experiment on HCT-15 colon and in the experiment on OVCAR-5 ovarian was above 100 µM throughout.

In the case of `CN(C)CCCN1c2ccc3ccccc3c2Sc2cccc(Cl)c21`, the TGI was 4.56 µM in the experiment on HT29 colon; 3.51 µM in the experiment with COLO 205 colon; 4.72 µM in the experiment on U251 CNS; 13.8 µM in the experiment on OVCAR-4 ovarian; 12 µM with UO-31 renal; 3.85 µM in the experiment with RPMI-8226 leukemia. Also, the TGI in the experiment with RXF 393 renal was determined as 10.4 µM; with HCT-15 colon, 22.7 µM; in the experiment with OVCAR-5 ovarian it was 17.7 µM.

Consider `COc1ccc(C2Oc3cc(OC)c(O)cc3[C@@H]2C)cc1` (stereo not given in full), for which the TGI was above 100 µM in the experiment on HT29 colon; above 100 µM with COLO 205 colon; above 100 µM in the experiment on U251 CNS; above 100 µM with OVCAR-4 ovarian; 79.3 µM in the experiment with UO-31 renal; 58.2 µM in the experiment with RPMI-8226 leukemia. In addition, the results for the TGI in the experiment with RXF 393 renal, in the experiment with HCT-15 colon and in the experiment on OVCAR-5 ovarian were above 100 µM, 35.4 µM and above 100 µM, respectively.

As to `COc1cc2c(oc(=O)c3c4oc([Si](C)(C)C)cc4cc(OC)c23)c2cccc(O)c12`, the TGI in the experiment on HT29 colon, with COLO 205 colon, in the experiment on U251 CNS, in the experiment with OVCAR-4 ovarian, with UO-31 renal and in the experiment with RPMI-8226 leukemia was above 100 µM in each case. The TGI in the experiment on RXF 393 renal, in the experiment on HCT-15 colon and in the experiment with OVCAR-5 ovarian was above 100 µM in each case.

As to `Cc1cn2cc(-c3ccncc3)nc2s1`, the TGI in the experiment with HT29 colon was above 100 µM; in the experiment with COLO 205 colon, above 100 µM; in the experiment with U251 CNS, above 100 µM; with OVCAR-4 ovarian, above 100 µM; with UO-31 renal, above 100 µM; in the experiment on RPMI-8226 leukemia it was above 90.2 µM. Further, the TGI with HCT-15 colon and in the experiment with OVCAR-5 ovarian was above 100 µM each time.

For the compound `O=c1[nH]c2cccccc-2c1-c1nc2ccccc2[nH]1`, the TGI with HT29 colon is above 100 µM; in the experiment on COLO 205 colon, above 100 µM; with U251 CNS, 68 µM; in the experiment on OVCAR-4 ovarian, 51.9 µM; in the experiment on UO-31 renal, 86.6 µM; with RPMI-8226 leukemia, above 100 µM. Besides, the TGI with RXF 393 renal is 45.6 µM; in the experiment with HCT-15 colon, above 100 µM; in the experiment with OVCAR-5 ovarian it was above 100 µM.

Take `COc1ccccc1C1C(Cl)C(=O)N1NC(=O)Cc1ccccc1` (stereo not given): the TGI in the experiment on HT29 colon, in the experiment with COLO 205 colon, in the experiment on U251 CNS, with OVCAR-4 ovarian, in the experiment with UO-31 renal and with RPMI-8226 leukemia was above 100 µM throughout. Also, the TGI in the experiment with RXF 393 renal, with HCT-15 colon and in the experiment with OVCAR-5 ovarian was above 100 µM in each case.
